From the NIST ThermoML archive (doi:10.1021/je060260h) come the findings set out here.

One may read the refractive index as the speed of light in vacuum divided by its phase velocity in the sample.

A short description of the data set: refractive index (Na D-line) (dimensionless). As to conditions: 298.15 K; 101.33 kPa; Liquid; Standard Abbe refractometry.

Numbers after ± are expanded uncertainties.

Consider `CCCCn1cc[n+](C)c1.F[P-](F)(F)(F)(F)F` [1-butyl-3-methylimidazolium hexafluorophosphate], for which the refractive index was 1.40925 ± 0.00037.
For `CCCCO` [butan-1-ol], the refractive index is 1.39686 ± 0.00033.
